{"source": "paper PMC4167698", "about": "“Fatty Acid Esters of Phloridzin Induce Apoptosis of Human Liver Cancer Cells through Altered Gene Expression” (PLoS ONE, 2014)", "key": {"[1]": {"test_system": "normal human hepatocytes (HP-F)", "test": "MTS cell viability assay, normal human hepatocytes", "assay_type": "cell-based", "details": "24 h", "method": "(§1) Cell viability was determined by using the MTS assay. In brief, HepG2 cells (5×10^3 cells/100 µL/well), MDA-MB-231 (5×10^3 cells/100 µL/well), THP-1 (25×10^3/100 µL/well), normal human and rat hepatocytes (1×10^4 cells/100 µL/well) were plated in triplicate, in a 96 well sterile flat bottom tissue culture plates. […] Thereby, cells were exposed to various concentrations (0.1, 1, 10, 25, 50, 75, 100 µM) of each treatment. Controls consist of cells with media containing DMSO (<0.5%), test blank wells contained the test compound in media with no cells and blank wells contained media with no cells. After additional 3, 6, 12, 18 or 24 h, 20 µL of the MTS reagent in combination with the electron coupling agent, phenazine methosulfate were added to the wells and cells were incubated in a humidified incubator for 3 h. Absorbance at 490 nm (OD490) was measured by using a Flurostar Optima microplate reader (BMG Labtech, Cary, NC, USA) to obtain the number of viable cells relative to the control population. Percentage of viability of the test compound treated cells are expressed as percentage compared to control (<0.5% DMSO). […] The selective index (SI) of the fatty acid esters of phloridzin is defined as the ratio of cytotoxicity (EC50 values) on normal HP-F cells to solid cancer HepG2, MDA-MB-231 cells (SI = EC50 on HP-F cells/EC50 on solid cancer cells). Samples with SI values greater than three were considered to have high selectivity towards cancer cells."}, "[2]": {"test_system": "MDA-MB-231 cells", "test": "MTS cell proliferation assay, MDA-MB-231", "assay_type": "cell-based, human", "details": "MTS", "method": "as §1"}, "[3]": {"test_system": "THP-1 cells", "test": "MTS cell proliferation assay, THP-1", "assay_type": "cell-based, human", "details": "MTS", "method": "as §1"}, "[4]": {"test_system": "HepG2 cells", "test": "MTS cell proliferation assay, HepG2", "assay_type": "cell-based, human", "details": "MTS", "method": "as §1"}}}
{"smiles": "CC/C=C\\C/C=C\\C/C=C\\C/C=C\\C/C=C\\C/C=C\\CCC(=O)O", "note": "[DHA, decosahexaenoic acid]", "values": [{"measurement": "EC50", "setting": "[1]", "result": "> 100", "unit": "µM"}, {"measurement": "EC50", "setting": "[2]; MDA-MB-231, 3 h", "result": "> 100", "unit": "µM"}, {"measurement": "EC50", "setting": "[2]; MDA-MB-231, 6 h", "result": "> 100", "unit": "µM"}, {"measurement": "EC50", "setting": "[2]; MDA-MB-231, 12 h", "result": "> 100", "unit": "µM"}, {"measurement": "EC50", "setting": "[2]; MDA-MB-231, 18 h", "result": "> 100", "unit": "µM"}, {"measurement": "EC50", "setting": "[2]; MDA-MB-231, 24 h", "result": "> 100", "unit": "µM"}, {"measurement": "EC50", "setting": "[3]; THP-1, 3 h", "result": "> 100", "unit": "µM"}, {"measurement": "EC50", "setting": "[3]; THP-1, 6 h", "result": "> 100", "unit": "µM"}, {"measurement": "EC50", "setting": "[3]; THP-1, 12 h", "result": "> 100", "unit": "µM"}, {"measurement": "EC50", "setting": "[3]; THP-1, 18 h", "result": "> 100", "unit": "µM"}, {"measurement": "EC50", "setting": "[3]; THP-1, 24 h", "result": "> 100", "unit": "µM"}, {"measurement": "EC50", "setting": "[4]; HepG2, 3 h", "result": "> 100", "unit": "µM"}, {"measurement": "EC50", "setting": "[4]; HepG2, 6 h", "result": "> 100", "unit": "µM"}, {"measurement": "EC50", "setting": "[4]; HepG2, 12 h", "result": "> 100", "unit": "µM"}, {"measurement": "EC50", "setting": "[4]; HepG2, 18 h", "result": "> 100", "unit": "µM"}, {"measurement": "EC50", "setting": "[4]; HepG2, 24 h", "result": "> 100", "unit": "µM"}]}
{"smiles": "COc1cccc2c1C(=O)c1c(O)c3c(c(O)c1C2=O)C[C@@](O)(C(C)=O)C[C@@H]3O[C@H]1C[C@H](N)[C@H](O)[C@H](C)O1", "note": "[Daunorubicin, daunorubicin]", "values": [{"measurement": "EC50", "setting": "[3]; Homo sapiens, THP-1, 3 h", "result": "48.1 ± 2.8", "unit": "µM"}, {"measurement": "EC50", "setting": "[3]; Homo sapiens, THP-1, 6 h", "result": "35.2 ± 2.9", "unit": "µM"}, {"measurement": "EC50", "setting": "[3]; Homo sapiens, THP-1, 12 h", "result": "12.6 ± 0.8", "unit": "µM"}, {"measurement": "EC50", "setting": "[3]; Homo sapiens, THP-1, 18 h", "result": "1.4 ± 0.2", "unit": "µM"}, {"measurement": "EC50", "setting": "[3]; Homo sapiens, THP-1, 24 h", "result": "0.02 ± 0.01", "unit": "µM"}]}
{"smiles": "COc1cccc2c1C(=O)c1c(O)c3c(c(O)c1C2=O)C[C@@](O)(C(=O)CO)C[C@@H]3O[C@H]1C[C@H](N)[C@H](O)[C@H](C)O1", "note": "[Doxorubicin, doxorubicin]", "values": [{"measurement": "EC50", "setting": "[2]; Homo sapiens, MDA-MB-231, 3 h", "result": "> 100", "unit": "µM"}, {"measurement": "EC50", "setting": "[2]; Homo sapiens, MDA-MB-231, 6 h", "result": "> 100", "unit": "µM"}, {"measurement": "EC50", "setting": "[2]; Homo sapiens, MDA-MB-231, 12 h", "result": "9.6 ± 0.2", "unit": "µM"}, {"measurement": "EC50", "setting": "[2]; Homo sapiens, MDA-MB-231, 18 h", "result": "5.9 ± 0.3", "unit": "µM"}, {"measurement": "EC50", "setting": "[2]; Homo sapiens, MDA-MB-231, 24 h", "result": "4.1 ± 0.1", "unit": "µM"}]}
{"smiles": "CC/C=C\\C/C=C\\C/C=C\\C/C=C\\C/C=C\\CCCC(=O)O", "note": "[EPA, eicosapentaenoic acid]", "values": [{"measurement": "EC50", "setting": "[1]; Hepatocyte", "result": "> 100", "unit": "µM"}, {"measurement": "EC50", "setting": "[2]; Homo sapiens, MDA-MB-231, 3 h", "result": "> 100", "unit": "µM"}, {"measurement": "EC50", "setting": "[2]; Homo sapiens, MDA-MB-231, 6 h", "result": "> 100", "unit": "µM"}, {"measurement": "EC50", "setting": "[2]; Homo sapiens, MDA-MB-231, 12 h", "result": "> 100", "unit": "µM"}, {"measurement": "EC50", "setting": "[2]; Homo sapiens, MDA-MB-231, 18 h", "result": "> 100", "unit": "µM"}, {"measurement": "EC50", "setting": "[2]; Homo sapiens, MDA-MB-231, 24 h", "result": "> 100", "unit": "µM"}, {"measurement": "EC50", "setting": "[3]; Homo sapiens, THP-1, 3 h", "result": "> 100", "unit": "µM"}, {"measurement": "EC50", "setting": "[3]; Homo sapiens, THP-1, 6 h", "result": "> 100", "unit": "µM"}, {"measurement": "EC50", "setting": "[3]; Homo sapiens, THP-1, 12 h", "result": "> 100", "unit": "µM"}, {"measurement": "EC50", "setting": "[3]; Homo sapiens, THP-1, 18 h", "result": "> 100", "unit": "µM"}, {"measurement": "EC50", "setting": "[3]; Homo sapiens, THP-1, 24 h", "result": "> 100", "unit": "µM"}, {"measurement": "EC50", "setting": "[4]; Homo sapiens, HepG2, 3 h", "result": "> 100", "unit": "µM"}, {"measurement": "EC50", "setting": "[4]; Homo sapiens, HepG2, 6 h", "result": "> 100", "unit": "µM"}, {"measurement": "EC50", "setting": "[4]; Homo sapiens, HepG2, 12 h", "result": "> 100", "unit": "µM"}, {"measurement": "EC50", "setting": "[4]; Homo sapiens, HepG2, 18 h", "result": "> 100", "unit": "µM"}, {"measurement": "EC50", "setting": "[4]; Homo sapiens, HepG2, 24 h", "result": "> 100", "unit": "µM"}]}
